Data taken from US12643859B2, “Pyridyl oxycarboxylic acid oxime derivative and preparation method therefor, weeding composition and application thereof” (Qingdao Kingagroot Chemical Compound Co., Ltd., priority 2018, dated 2026).

Tested on: Monocotyledonous and dicotyledonous weed seeds and main crop seeds
Experiment: Post-emergence test experiment (Table 3, 1000 g a.i./ha)
Assay type: in vivo
Conditions: 3 weeks in greenhouse, fresh weight inhibition
Method: The above described growth inhibition rate is fresh weight inhibition rate.
Post-emergence test experiment: Monocotyledonous and dicotyledonous weed seeds and main crop seeds (i. e. wheat, corn, rice, soybean, cotton, oilseed, millet and sorghum.) were put into a plastic pot loaded with soil. Then covered with 0.5-2 cm soil, the seeds were allowed to grow in good greenhouse environment. The test plants were treated at 2-3 leaf stage 2 weeks after sowing. The test compounds of the invention were dissolved with acetone respectively, then added with tween-80, and using 1.5 liters per hectare of an emulsible concentrate of methyl oleate as a synergist, and diluted by certain amount of water to certain concentration. The solution was sprayed to the plants with a sprayer. Then the plants were cultured for 3 weeks in the greenhouse, and the experiment result of weed controlling effect was listed in tables 3-4.

Row | Compound | Activity level (growth inhibition rate) Digitaria sanguinalis | Activity level (growth inhibition rate) Echinochloa crusgalli | Activity level (growth inhibition rate) Galium spurium | Activity level (growth inhibition rate) Leptochloa chinensis | Activity level (growth inhibition rate) Monochoria Vaginalis | Activity level (growth inhibition rate) Murdannia triquetra | Activity level (growth inhibition rate) Setaria viridis
1 | CC(Oc1nc(F)c(Cl)c(N)c1Cl)C(=O)ON=C(c1ccccc1)c1cccc(Cl)c1 (stereo not drawn) [Compound 79] | 5 (Level 5: the growth inhibition rate is greater than 85%) | 5 (Level 5: the growth inhibition rate is greater than 85%) | 5 (Level 5: the growth inhibition rate is greater than 85%) | 5 (Level 5: the growth inhibition rate is greater than 85%) | 5 (Level 5: the growth inhibition rate is greater than 85%) | 5 (Level 5: the growth inhibition rate is greater than 85%) | 5 (Level 5: the growth inhibition rate is greater than 85%)
2 | CC(Oc1nc(F)c(Cl)c(N)c1Cl)C(=O)ON=C(c1ccccc1)c1ccc(C(F)(F)F)cc1 (stereo not drawn) [Compound 81] | 5 (Level 5: the growth inhibition rate is greater than 85%) | 5 (Level 5: the growth inhibition rate is greater than 85%) | 5 (Level 5: the growth inhibition rate is greater than 85%) | 5 (Level 5: the growth inhibition rate is greater than 85%) | 5 (Level 5: the growth inhibition rate is greater than 85%) | 5 (Level 5: the growth inhibition rate is greater than 85%) | 5 (Level 5: the growth inhibition rate is greater than 85%)
3 | CC(Oc1nc(F)c(Cl)c(N)c1Cl)C(=O)ON=C(C(=O)NCCc1ccccc1)c1ccccc1 (stereo not drawn) [Compound 105] | 5 (Level 5: the growth inhibition rate is greater than 85%) | 5 (Level 5: the growth inhibition rate is greater than 85%) | 5 (Level 5: the growth inhibition rate is greater than 85%) | 5 (Level 5: the growth inhibition rate is greater than 85%) | 5 (Level 5: the growth inhibition rate is greater than 85%) | 5 (Level 5: the growth inhibition rate is greater than 85%) | 5 (Level 5: the growth inhibition rate is greater than 85%)
4 | CC(Oc1nc(F)c(Cl)c(N)c1Cl)C(=O)ON=C(Br)c1ccc(C#N)cc1 (stereo not drawn) [Compound 86] | 5 (Level 5: the growth inhibition rate is greater than 85%) | 5 (Level 5: the growth inhibition rate is greater than 85%) | 5 (Level 5: the growth inhibition rate is greater than 85%) | 5 (Level 5: the growth inhibition rate is greater than 85%) | 5 (Level 5: the growth inhibition rate is greater than 85%) | 5 (Level 5: the growth inhibition rate is greater than 85%) | 5 (Level 5: the growth inhibition rate is greater than 85%)
5 | CC(Oc1nc(F)c(Cl)c(N)c1Cl)C(=O)ON=C(c1ccccc1)c1ccc(C2CC2)cc1 (stereo not drawn) [Compound 80] | 5 (Level 5: the growth inhibition rate is greater than 85%) | 5 (Level 5: the growth inhibition rate is greater than 85%) | 5 (Level 5: the growth inhibition rate is greater than 85%) | 5 (Level 5: the growth inhibition rate is greater than 85%) | 5 (Level 5: the growth inhibition rate is greater than 85%) | 5 (Level 5: the growth inhibition rate is greater than 85%) | 5 (Level 5: the growth inhibition rate is greater than 85%)
6 | COc1ccc(CNC(=O)C(C)=NOC(=O)C(C)Oc2nc(F)c(Cl)c(N)c2Cl)cc1 (stereo not drawn) [Compound 103] | 5 (Level 5: the growth inhibition rate is greater than 85%) | 5 (Level 5: the growth inhibition rate is greater than 85%) | 5 (Level 5: the growth inhibition rate is greater than 85%) | 5 (Level 5: the growth inhibition rate is greater than 85%) | 5 (Level 5: the growth inhibition rate is greater than 85%) | 5 (Level 5: the growth inhibition rate is greater than 85%) | 5 (Level 5: the growth inhibition rate is greater than 85%)
7 | CC(CCCl)=NOC(=O)C(C)Oc1nc(C)c(C)c(N)c1C (stereo not drawn) [Compound 19] | 5 (Level 5: the growth inhibition rate is greater than 85%) | 5 (Level 5: the growth inhibition rate is greater than 85%) | 5 (Level 5: the growth inhibition rate is greater than 85%) | 5 (Level 5: the growth inhibition rate is greater than 85%) | 5 (Level 5: the growth inhibition rate is greater than 85%) | 5 (Level 5: the growth inhibition rate is greater than 85%) | 5 (Level 5: the growth inhibition rate is greater than 85%)
8 | CC(Oc1nc(F)c(Cl)c(N)c1Cl)C(=O)ON=C(c1ccccc1)c1ccc(F)cc1 (stereo not drawn) [Compound 83] | 5 (Level 5: the growth inhibition rate is greater than 85%) | 5 (Level 5: the growth inhibition rate is greater than 85%) | 5 (Level 5: the growth inhibition rate is greater than 85%) | 5 (Level 5: the growth inhibition rate is greater than 85%) | 5 (Level 5: the growth inhibition rate is greater than 85%) | 5 (Level 5: the growth inhibition rate is greater than 85%) | 5 (Level 5: the growth inhibition rate is greater than 85%)
9 | CC(=NOC(=O)C(C)Oc1nc(F)c(Cl)c(N)c1Cl)c1ccc([N+](=O)[O-])cc1 (stereo not drawn) [Compound 71] | 5 (Level 5: the growth inhibition rate is greater than 85%) | 5 (Level 5: the growth inhibition rate is greater than 85%) | 5 (Level 5: the growth inhibition rate is greater than 85%) | 5 (Level 5: the growth inhibition rate is greater than 85%) | 5 (Level 5: the growth inhibition rate is greater than 85%) | 5 (Level 5: the growth inhibition rate is greater than 85%) | 5 (Level 5: the growth inhibition rate is greater than 85%)
10 | CC(Oc1nc(F)c(Cl)c(N)c1Cl)C(=O)ON=C(Cc1ccccc1)c1ccccc1N (stereo not drawn) [Compound 93] | 5 (Level 5: the growth inhibition rate is greater than 85%) | 5 (Level 5: the growth inhibition rate is greater than 85%) | 5 (Level 5: the growth inhibition rate is greater than 85%) | 5 (Level 5: the growth inhibition rate is greater than 85%) | 5 (Level 5: the growth inhibition rate is greater than 85%) | 5 (Level 5: the growth inhibition rate is greater than 85%) | 5 (Level 5: the growth inhibition rate is greater than 85%)
11 | CSC(=O)C(=NOC(=O)C(C)Oc1nc(F)c(Cl)c(N)c1Cl)C(=O)NCc1ccc(Cl)cc1 (stereo not drawn) [Compound 102] | 5 (Level 5: the growth inhibition rate is greater than 85%) | 5 (Level 5: the growth inhibition rate is greater than 85%) | 5 (Level 5: the growth inhibition rate is greater than 85%) | 5 (Level 5: the growth inhibition rate is greater than 85%) | 5 (Level 5: the growth inhibition rate is greater than 85%) | 5 (Level 5: the growth inhibition rate is greater than 85%) | 5 (Level 5: the growth inhibition rate is greater than 85%)
12 | CC(Oc1nc(F)c(Cl)c(N)c1Cl)C(=O)ON=C1CCCCC1 (stereo not drawn) [Compound 116] | 5 (Level 5: the growth inhibition rate is greater than 85%) | 5 (Level 5: the growth inhibition rate is greater than 85%) | 5 (Level 5: the growth inhibition rate is greater than 85%) | 5 (Level 5: the growth inhibition rate is greater than 85%) | 5 (Level 5: the growth inhibition rate is greater than 85%) | 5 (Level 5: the growth inhibition rate is greater than 85%) | 5 (Level 5: the growth inhibition rate is greater than 85%)
